pIC50: −log10 of the molar value. Bridge positions count the residues as written; N and C are the ends. Square brackets hold non-standard residues; d marks the D form. Ends that are not written are not given here. Peptide text beside a SMILES is read from it. NMeF = CN[C@@H](Cc1ccccc1)C(=O)O; dOrn = NCCC[C@@H](N)C(=O)O; dDab = NCC[C@@H](N)C(=O)O
Legend:
Mu-opioid receptor = molecular target: T1, Mu-opioid receptor (Homo sapiens, UniProt P35372); assay: cAMP functional experiment, Mu-opioid receptor (forskolin-induced cAMP accumulation); type: cell-based
T1 construct: expressed in transfected cells; host or cells: HEK293
Procedure: (§1) The agonistic activity of the cyclopeptide molecule of the present invention against Mu-opioid receptor, Delta-opioid receptor, Kappa-opioid receptor, NPFF1 receptor and NPFF2 receptor was evaluated by detecting the regulation of the cyclopeptide molecule of the present invention on the intracellular accumulation of cyclic adenosine monophosphate (cAMP) induced by Forskolin in HEK293 cells stably expressing these five receptors. The experimental method was: the cells were seeded in 24 well plates with 120000 cells per well, and were cultured for more than 20 hours. At the beginning of the experiment, the culture medium in the culture dish was suck out, and then 500 μL of preheated serum-free medium containing 1 mM of IBMX was added, the mixture was incubated at 37° C. for 10 minutes. Then each 10 μL of the drug to be tested and 10 μM of forskolin (final concentration) were added to each well. The mixture was incubated at 37° C. for 30 minutes. After incubation, all the liquid was suck out from the culture dish, 500 μL of 0.2 N hydrochloric acid was added to each well, the mixture was incubated at room temperature for 30 minutes to promote cell lysis. After lysis was complete, NaOH was added to neutralize the hydrochloric acid solution used for lysis. Then all the liquid was suck out from the culture dish into centrifuge tubes, the liquid was centrifuged at 12000 rpm for 2 minutes. 50 μL was taken to a clean centrifuge tube, 100 μL of 60 μg/μL PKA was added, and 100 μL of TE cAMP buffer was added to the blank control group (B). Another 50 μL of 0.5 μ Ci[^3H]cAMP was added to each of the above centrifuge tubes, the mixture was quickly mixed and incubated at 4° C. for more than 2 hours. After incubation, another 100 μL of activated carbon suspension was added to each tube, the mixture was vortex agitated evenly, placed in an ice bath for 1 minute, centrifuged at 5000 rpm for 4 minutes. 200 μL of supernatant after centrifugation in each tube was suck out to a 24 well plate, with an additional 700 μL of scintillator liquid added per well, then the 24 well plate was sealed with adhesive film, placed for 3 hours, then placed on the scintillation instrument for measurement.
(§2) The inhibitory effect of cAMP was represented by the percentage (% control) of drug inhibition of intracellular cAMP accumulation induced by Forskolin, wherein % control=(cAMP content when treated with Forskolin−cAMP content when Forskolin co-treated with the test drug)/(cAMP content when treated with Forskolin−cAMP content when treated with solvent). The related % control data was represented by mean±S.E.M. The dose-effect relationship of the drug was statistically analyzed using a nonlinear regression model, and the IC50 values of the multi-target cyclopeptide molecule on inhibition of Forskolin induced intracellular cAMP accumulation were calculated using the statistical software GraphPad Prism version 5.0.

Delta-opioid receptor = molecular target: T2, Delta-opioid receptor (Homo sapiens, UniProt P41143); assay: cAMP functional experiment, Delta-opioid receptor (forskolin-induced cAMP accumulation); type: cell-based
T2 construct: expressed in transfected cells; host or cells: HEK293
Procedure: as §1, §2

NPFF2 receptor = molecular target: T3, NPFF2 receptor (Homo sapiens, UniProt Q9Y5X5); assay: cAMP functional experiment, NPFF2 receptor (forskolin-induced cAMP accumulation); type: cell-based
T3 construct: expressed in transfected cells; host or cells: HEK293
Procedure: as §1, §2

Kunming male mice [1] = assay: Photothermal tail flick experiment, oral administration; type: in vivo; settings: tail flick; for Maximum analgesic time: oral administration at the maximum analgesic dose
Procedure: (§3) Two administration methods were used: peripheral subcutaneous administration and oral administration. Subsequently, the analgesic activity of the drug was studied using an acute pain model of photothermal tail flick in mice.
1 mL sterile syringe was used for oral administration (p.o.), the pinhead was replaced with a mouse gastric lavage needle, and […] of the drug was orally administered. The skin on the neck and back of the mouse was grasped with the left hand with the abdomen facing upwards. Noted that the mouse's entire body was fixed to vertical, which was beneficial for oral gavage. A gastric lavage needle (No. 12 needle and 1 mL syringe) was held in the right hand and was inserted to the esophagus along the upper jaw which is pressed the tongue tightly from the corner of the mouse's mouth. Gastric lavage fluid can be injected when the needle inserted 2.5 cm. The inserting length of the needle should be determined through practice in advance, as there is a sense of falling into a hole after the needle is inserted. If the injection position was appropriate, it should be very smooth. […] This can cause immediate death of the mouse after gavage.
(§4) The photothermal tail flick experiment is based on the experimental method summarized by D'Amour and Smith to optimize the experimental parameters. The experiment selected Kunming male mice with body weigh 21±2 g, and ambient temperature controlled at 22±2° C. The experimental mice were allowed to drink water freely and were moved from the breeding room to the experimental area for adaptation for 30 minutes before starting the experiment. Then the mice were grab with the right hand and the tail hang freely. Then the mice's tail were placed on a radiation light source, 2-3 mm away from the mice tail. The intensity of radiation heat was adjusted to the tail flick time of mice being 3-5 s, which is the basic pain threshold of photothermal tail flick. The irradiation time of the mice tail should not exceed 10 s to prevent scalding of the mice tail, which was the maximum latency for photothermal tail flick. After administration, time points of 10, 20, 30, 45, 60, 90, 120, 180, 240, 300, 360, and 420 minutes were selected to measure the tail flick latency of mice after administration.
(§5) The analgesic effect of drugs was generally evaluated using the maximum analgesic effect MPE (%), MPE (%)=100×[(pain threshold after administration−basic pain threshold)/(10 seconds−basic pain threshold)]. 50% effective dose (ED50) refers to the corresponding drug dose that causes a 50% effect. ED50 and 95% confidence interval were calculated using MPE (%) and the drug concentration that achieves the maximum analgesic effect MPE (%) by the statistical software GraphPad Prism 5.0. The difference in analgesic effects was statistically analyzed using one-way ANOVA (Dunnett test), *P<0.05, **P<0.01, and ***P<0.001 indicated significance of the difference between the group with only drug injected and the saline group.

Kunming male mice [2] = assay: Photothermal tail flick experiment, subcutaneous injection; type: in vivo; settings: for ED50 value (95% confidence interval), analgesic activity: photothermal tail flick
Procedure: as §3
Subcutaneous administration on the back was chosen for subcutaneous administration (s.c.). A sterile 1 mL syringe was used and the drug with the volume of 0.1 mL/10 g was injected for administration. The back skin was grasped with the right hand, the needle was tilted in, and the drug was injected subcutaneously into the mouse's back. After the needle was inserted, shook it left and right, and observe to confirm that the needle had indeed entered the subcutaneous area to prevent the needle from puncturing the skin and leaking the drug.
as §4, §5

NPFF1 receptor = molecular target: T4, NPFF1 receptor (Homo sapiens, UniProt Q9GZQ6); assay: cAMP functional experiment, NPFF1 receptor (forskolin-induced cAMP accumulation); type: cell-based
T4 construct: expressed in transfected cells; host or cells: HEK293
Procedure: as §1, §2

Kappa-opioid receptor = molecular target: T5, Kappa-opioid receptor (Homo sapiens, UniProt P41145); assay: cAMP functional experiment, Kappa-opioid receptor (forskolin-induced cAMP accumulation); type: cell-based
T5 construct: expressed in transfected cells; host or cells: HEK293
Procedure: as §1, §2

T4 sequence (Q9GZQ6 whole entry): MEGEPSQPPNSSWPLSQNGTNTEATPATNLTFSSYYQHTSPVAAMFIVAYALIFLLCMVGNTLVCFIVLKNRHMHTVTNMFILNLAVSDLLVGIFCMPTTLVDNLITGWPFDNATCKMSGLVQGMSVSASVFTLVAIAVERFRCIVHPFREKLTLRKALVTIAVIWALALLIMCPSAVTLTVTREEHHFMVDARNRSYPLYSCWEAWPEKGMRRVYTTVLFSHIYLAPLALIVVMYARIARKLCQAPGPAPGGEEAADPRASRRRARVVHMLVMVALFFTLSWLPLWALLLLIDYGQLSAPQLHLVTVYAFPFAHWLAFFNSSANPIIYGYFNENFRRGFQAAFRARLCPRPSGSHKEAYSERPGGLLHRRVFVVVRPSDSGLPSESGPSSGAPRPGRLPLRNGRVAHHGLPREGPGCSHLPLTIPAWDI
T3 sequence (Q9Y5X5 whole entry): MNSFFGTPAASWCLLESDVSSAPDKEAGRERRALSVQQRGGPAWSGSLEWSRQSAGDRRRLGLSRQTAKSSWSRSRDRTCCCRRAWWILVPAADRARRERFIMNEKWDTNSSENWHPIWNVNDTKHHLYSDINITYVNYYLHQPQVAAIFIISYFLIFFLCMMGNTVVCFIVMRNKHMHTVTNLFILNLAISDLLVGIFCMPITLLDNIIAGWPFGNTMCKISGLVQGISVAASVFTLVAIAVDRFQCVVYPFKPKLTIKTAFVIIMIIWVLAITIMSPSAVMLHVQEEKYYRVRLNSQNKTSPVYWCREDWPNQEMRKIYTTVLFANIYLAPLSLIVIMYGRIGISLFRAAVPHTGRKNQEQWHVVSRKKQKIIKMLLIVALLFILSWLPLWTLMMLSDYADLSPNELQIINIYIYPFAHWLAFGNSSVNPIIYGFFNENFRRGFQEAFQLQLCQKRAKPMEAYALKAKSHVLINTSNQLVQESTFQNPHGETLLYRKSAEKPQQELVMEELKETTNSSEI
T1 sequence (P35372 whole entry): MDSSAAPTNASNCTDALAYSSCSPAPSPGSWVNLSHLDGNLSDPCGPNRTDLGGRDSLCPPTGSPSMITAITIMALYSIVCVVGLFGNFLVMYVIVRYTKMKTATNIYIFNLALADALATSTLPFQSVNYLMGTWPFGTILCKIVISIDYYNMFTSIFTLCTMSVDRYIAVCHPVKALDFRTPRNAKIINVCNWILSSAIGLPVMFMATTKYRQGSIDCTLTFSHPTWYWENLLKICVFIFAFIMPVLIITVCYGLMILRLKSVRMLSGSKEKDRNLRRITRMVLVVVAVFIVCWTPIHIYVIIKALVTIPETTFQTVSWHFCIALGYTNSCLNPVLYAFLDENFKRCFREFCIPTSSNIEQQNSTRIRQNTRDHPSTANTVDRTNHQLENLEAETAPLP
T2 sequence (P41143 whole entry): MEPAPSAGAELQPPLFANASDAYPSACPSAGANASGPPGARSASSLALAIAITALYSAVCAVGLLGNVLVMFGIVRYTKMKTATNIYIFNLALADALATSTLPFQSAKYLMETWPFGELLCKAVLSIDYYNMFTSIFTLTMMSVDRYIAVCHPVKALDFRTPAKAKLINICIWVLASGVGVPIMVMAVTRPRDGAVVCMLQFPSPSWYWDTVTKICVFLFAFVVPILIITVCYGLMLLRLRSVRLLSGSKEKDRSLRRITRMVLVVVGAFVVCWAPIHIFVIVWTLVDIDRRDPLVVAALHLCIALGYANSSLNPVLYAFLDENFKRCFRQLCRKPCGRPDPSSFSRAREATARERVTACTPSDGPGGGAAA
T5 sequence (P41145 whole entry): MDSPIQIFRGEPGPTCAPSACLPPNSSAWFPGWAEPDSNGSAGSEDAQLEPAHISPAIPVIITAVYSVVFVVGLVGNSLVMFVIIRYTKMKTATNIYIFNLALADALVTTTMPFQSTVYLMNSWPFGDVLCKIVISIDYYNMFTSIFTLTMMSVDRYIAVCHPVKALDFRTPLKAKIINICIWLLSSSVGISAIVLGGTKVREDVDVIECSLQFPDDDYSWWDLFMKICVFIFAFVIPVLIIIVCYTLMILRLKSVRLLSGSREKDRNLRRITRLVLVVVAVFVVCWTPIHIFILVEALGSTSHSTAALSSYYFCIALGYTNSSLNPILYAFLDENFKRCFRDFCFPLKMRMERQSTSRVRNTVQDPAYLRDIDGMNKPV

Compound | pIC50 (Mu-opioid receptor) | pIC50 (Delta-opioid receptor) | pIC50 (NPFF2 receptor) | Maximum analgesic time (Kunming male mice [1]) | analgesic duration (Kunming male mice [1]; oral administration) | ED50 value (95% confidence interval), analgesic activity (Kunming male mice [2]) | pIC50 (NPFF1 receptor) | pIC50 (Kappa-opioid receptor) | oral analgesic activity (Kunming male mice [1]; oral administration) | effective analgesic actuation duration (Kunming male mice [2]; tail flick)
CN1C(=O)CNC(=O)[C@H](NC(=O)[C@@H](N)Cc2ccc(O)cc2)CCCCNC(=O)CC[C@@H](C(=O)N2CCC[C@H]2C(=O)N[C@@H](CCC(N)=O)C(=O)N[C@@H](CCCNC(=N)N)C(=O)N[C@@H](Cc2ccccc2)C(N)=O)NC(=O)[C@@H]1Cc1ccccc1 [Compound 2, Tyr-c^[2,5][D-Lys-Gly-NMe-Phe-Glu]-Pro-Gln-Arg-Phe-NH2] (H-Y[dK]G[NMeF]EPQRF-NH2; lactam 2-5) | 7.31 | 7.44 | 7.08 | 30 min | 240 min | 17.9 (15.3 to 20.9) μg/kg | 6.72 | 7.53 | – | –
CN1C(=O)CNC(=O)[C@@H](NC(=O)[C@@H](N)Cc2ccc(O)cc2)CCCCNC(=O)C[C@@H](C(=O)N2CCC[C@H]2C(=O)N[C@@H](CCC(N)=O)C(=O)N[C@@H](CCCNC(=N)N)C(=O)N[C@@H](Cc2ccccc2)C(N)=O)NC(=O)[C@@H]1Cc1ccccc1 [Compound 3, Tyr-c^[2,5][Lys-Gly-NMe-Phe-Asp]-Pro-Gln-Arg-Phe-NH2] (H-YKG[NMeF]DPQRF-NH2; lactam 2-5) | 7.15 | 7.55 | 6.95 | 20 min | 240 min | 25.4 (22.1 to 29.2) μg/kg | 7.54 | 6.49 | – | –
CN1C(=O)CNC(=O)[C@@H](NC(=O)[C@@H](N)Cc2ccc(O)cc2)CCCCNC(=O)C[C@H](C(=O)N2CCC[C@H]2C(=O)N[C@@H](CCC(N)=O)C(=O)N[C@@H](CCCNC(=N)N)C(=O)N[C@@H](Cc2ccccc2)C(N)=O)NC(=O)[C@@H]1Cc1ccccc1 [Compound 4, Tyr-c^[2,5][Lys-Gly-NMe-Phe-D-Asp]-Pro-Gln-Arg-Phe-NH2] (H-YKG[NMeF][dD]PQRF-NH2; lactam 2-5) | 6.78 | 6.03 | 7.09 | 20 min | 240 min | 30.3 (19.4 to 47.1) μg/kg | 6.98 | – | – | –
CN1C(=O)CNC(=O)[C@H](NC(=O)[C@@H](N)Cc2ccc(O)cc2)CCCCNC(=O)C[C@H](C(=O)N2CCC[C@H]2C(=O)N[C@@H](CCC(N)=O)C(=O)N[C@@H](CCCNC(=N)N)C(=O)N[C@@H](Cc2ccccc2)C(N)=O)NC(=O)[C@@H]1Cc1ccccc1 [Compound 5, Tyr-c^[2,5][D-Lys-Gly-NMe-Phe-D-Asp]-Pro-Gln-Arg-Phe-NH2] (H-Y[dK]G[NMeF][dD]PQRF-NH2; lactam 2-5) | 6.23 | 6.46 | 6.72 | 20 min | 240 min | 23.2 (19.1 to 28.2) μg/kg | 6.28 | – | – | –
CN1C(=O)CNC(=O)[C@H](NC(=O)[C@@H](N)Cc2ccc(O)cc2)CC(=O)NCCCC[C@@H](C(=O)N2CCC[C@H]2C(=O)N[C@@H](CCC(N)=O)C(=O)N[C@@H](CCCNC(=N)N)C(=O)N[C@@H](Cc2ccccc2)C(N)=O)NC(=O)[C@@H]1Cc1ccccc1 [Compound 6, Tyr-c^[2,5][D-Asp-Gly-NMe-Phe-Lys]-Pro-Gln-Arg-Phe-NH2] (H-Y[dD]G[NMeF]KPQRF-NH2; lactam 2-5) | 7.18 | 7.13 | 6.52 | 30 min | 240 min | 15.8 (14.6 to 17.1) μg/kg | 6.65 | 7.24 | – | –
CN1C(=O)CNC(=O)[C@H](NC(=O)[C@@H](N)Cc2ccc(O)cc2)CCCNC(=O)C[C@@H](C(=O)N2CCC[C@H]2C(=O)N[C@@H](CCC(N)=O)C(=O)N[C@@H](CCCNC(=N)N)C(=O)N[C@@H](Cc2ccccc2)C(N)=O)NC(=O)[C@@H]1Cc1ccccc1 [Compound 8, Tyr-c^[2,5][D-Orn-Gly-NMe-Phe-Asp]-Pro-Gln-Arg-Phe-NH2] (H-Y[dOrn]G[NMeF]DPQRF-NH2; lactam 2-5) | 6.77 | 6.18 | 6.88 | 30 min | 240 min | 15.0 (13.8 to 16.4) μg/kg | 6.36 | 6.86 | – | –
CN1C(=O)CNC(=O)[C@H](NC(=O)[C@@H](N)Cc2ccc(O)cc2)CCNC(=O)C[C@@H](C(=O)N2CCC[C@H]2C(=O)N[C@@H](CCC(N)=O)C(=O)N[C@@H](CCCNC(=N)N)C(=O)N[C@@H](Cc2ccccc2)C(N)=O)NC(=O)[C@@H]1Cc1ccccc1 [Compound 9, Tyr-c^[2,5][D-Dab-Gly-NMe-Phe-Asp]-Pro-Gln-Arg-Phe-NH2] (H-Y[dDab]G[NMeF]DPQRF-NH2; lactam 2-5) | 7.42 | 7.02 | 6.58 | 30 min | 240 min | 16.0 (14.4 to 17.6) μg/kg | 6.74 | 7.15 | – | –
CN1C(=O)CNC(=O)[C@H](NC(=O)[C@@H](N)Cc2ccc(O)cc2)CCCCNC(=O)C[C@@H](C(=O)NCC(=O)N[C@@H](CCC(N)=O)C(=O)N[C@@H](CCCNC(=N)N)C(=O)N[C@@H](Cc2ccccc2)C(N)=O)NC(=O)[C@@H]1Cc1ccccc1 [Compound 12, Tyr-c^[2,5][D-Lys-Gly-NMe-Phe-Asp]-Gly-Gln-Arg-Phe-NH2] (H-Y[dK]G[NMeF]DGQRF-NH2; lactam 2-5) | 7.08 | 7.34 | 7.03 | 20 min | 240 min | – | 7.23 | 7.01 | – | –
Tyr-D-Ala-Gly-NMe-Phe-Gly-Pro-Gln-Arg-Phe-NH2 (Y[dA]G[NMeF]GPQRF-NH2) [DN-9, multi-target parent peptide for opioid receptor/neuropeptide FF receptors, chemical template, reference compound] | – | – | – | 20 min | 90 min | 228 µg/kg | – | – | only produces strong analgesic activity at a high-dose of 40 mg/kg | 90 min
